Experimental data as given in patent US6906078B2, “Method of using (H+/K+) ATPase inhibitors as antiviral agents” (Pharmacia Corporation, priority 1994, dated 2005).
Where two headings read alike, the source gives them in different places.

Tests used:
gastric acid secretion [1] = test: Inhibition of gastric acid secretion in meal-stimulated Pavlov pouch dog; format: in vivo, beagle dogs; conditions: 3 mg/kg, four-hour period
Protocol: Adult female beagle dogs weighing 6 to 10 kilograms were obtained from Laboratory Research Enterprises (Kalamazoo, Mich.) or from Hazelton Research Animals (Cumberland, Va.). Surgical implantation of a Thomas-type gastric cannula into an innervated Pavlov pouch of each dog was performed by the method reported by L. Burrows et al., J. Surgical Res., 4, 147 (1964). After recovery from surgery, the dogs were trained to stand quietly, fully conscious, in Pavlov-type dog restraining slings. All dogs were deprived of food, but not water, for 24 hours prior to each assay. Basal acid secretion was measured by collecting from the cannulas for 30 minutes before dosing with a test compound. Solutions of the test compounds in iso-osmotic phosphate buffer (pH 7.4) were given either intravenously or directly into the Pavlov pouch. After 30 minutes the pouch was drained. The dogs were then fed 320 grams of dog food and gastric acid secretions were collected each half hour for four hours. Controls were determined in the same way except that only food (i.e., no test compound) was administered.
(§1) Data were analyzed for three different variables: volume of gastric juice, acid concentration, and total acid output. Percent inhibition for the four-hour experimental period was determined for each parameter by comparison with 3 to 4 controls. Estimates of ED50 were determined from dose response curves.

(H+/K+)-ATPase = target: T1, (H+/K+)-ATPase (Canis lupus familiaris, UniProt P50996); test: Inhibition of (H+/K+)-ATPase from canine gastric mucosa (inorganic phosphate release); format: biochemical; conditions: canine gastric mucosa microsomes, pH 6.0, 30 min preincubation at 37° C.; read-out: (H+/K+)-ATPase IC50
T1 construct: The microsomes retained at the 15%-30% sucrose interface, after centrifugation at 250,000×g for sixty minutes, were used as the source of (H^+/K^+)-ATPase; from tissue; host or cells: gastric glandular mucosa of mongrel dogs (microsomal fraction, lyophilized)
T1 sequence (P50996 whole entry): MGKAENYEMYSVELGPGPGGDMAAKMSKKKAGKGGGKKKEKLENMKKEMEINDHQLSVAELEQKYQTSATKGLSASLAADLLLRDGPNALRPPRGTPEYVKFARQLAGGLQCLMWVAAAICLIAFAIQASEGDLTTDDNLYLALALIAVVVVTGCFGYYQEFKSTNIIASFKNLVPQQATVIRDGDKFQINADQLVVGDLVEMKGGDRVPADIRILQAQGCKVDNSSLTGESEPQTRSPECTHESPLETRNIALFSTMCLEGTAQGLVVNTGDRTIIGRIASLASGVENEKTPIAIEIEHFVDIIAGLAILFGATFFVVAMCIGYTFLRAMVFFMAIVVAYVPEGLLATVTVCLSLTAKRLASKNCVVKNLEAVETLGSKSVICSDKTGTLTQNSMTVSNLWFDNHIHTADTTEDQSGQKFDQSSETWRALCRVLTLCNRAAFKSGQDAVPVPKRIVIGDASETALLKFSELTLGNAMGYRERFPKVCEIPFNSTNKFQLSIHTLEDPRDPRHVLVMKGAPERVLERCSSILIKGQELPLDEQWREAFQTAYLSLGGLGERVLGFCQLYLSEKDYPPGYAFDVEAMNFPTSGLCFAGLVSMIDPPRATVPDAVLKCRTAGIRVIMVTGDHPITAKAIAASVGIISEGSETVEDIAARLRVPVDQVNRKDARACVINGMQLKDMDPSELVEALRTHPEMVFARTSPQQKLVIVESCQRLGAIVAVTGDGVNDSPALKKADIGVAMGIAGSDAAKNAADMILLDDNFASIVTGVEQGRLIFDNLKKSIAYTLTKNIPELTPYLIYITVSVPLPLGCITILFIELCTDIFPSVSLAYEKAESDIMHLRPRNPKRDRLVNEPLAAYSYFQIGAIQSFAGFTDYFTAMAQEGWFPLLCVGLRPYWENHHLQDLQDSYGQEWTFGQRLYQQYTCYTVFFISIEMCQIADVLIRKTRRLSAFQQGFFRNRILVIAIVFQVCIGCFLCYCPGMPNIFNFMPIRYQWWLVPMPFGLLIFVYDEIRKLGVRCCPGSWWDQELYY
T1 sequence (P33704 whole entry partner): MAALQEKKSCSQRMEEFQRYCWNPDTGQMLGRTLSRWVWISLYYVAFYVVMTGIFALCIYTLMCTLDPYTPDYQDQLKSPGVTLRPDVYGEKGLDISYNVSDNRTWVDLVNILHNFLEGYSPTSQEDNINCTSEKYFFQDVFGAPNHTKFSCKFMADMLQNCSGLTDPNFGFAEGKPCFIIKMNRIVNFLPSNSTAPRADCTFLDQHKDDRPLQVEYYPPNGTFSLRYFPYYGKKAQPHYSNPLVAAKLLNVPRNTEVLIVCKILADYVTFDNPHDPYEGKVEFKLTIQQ
Outline: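 Lyophilised gastric microsomes (sucrose-gradient 15%/30% interface fraction from dog mucosa, ~25 mcg protein) preincubated with compound 30 min at 37° C in 20 mM MES-Tris pH 6.0, 5 mM MgCl2, 25 mM sucrose, then 30 min more after 4 mM Tris-ATP. Released phosphate read by molybdate/ascorbate at 870 nm; activity = K+-stimulated (20 mM KCl) minus basal.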

gastric acid secretion [2] = test: Inhibition of gastric acid secretion in gastric fistula beagle dogs (histamine-stimulated); format: in vivo; conditions: Canis lupus familiaris, 4 h, histamine-stimulated, four-hour period, read-out: Gastric-Fistula Beagle % Inhibition (3 mg/kg dose)
Description: Adult female beagle dogs weighing 6 to 11 kilograms obtained from Laboratory Research Enterprises (Kalamazoo, Mich.) or from Hazelton Research Animals (Cumberland, Va.) were surgically implanted with a simple Thomas-type gastric cannula. After recovery from surgery, the dogs were trained to stand quietly, fully conscious, in Pavlov-type dog restraining slings and were acclimated to intravenous infusion of histamine dihydrochloride. During the course of these studies, no dog was used more than once a week. All dogs were deprived of food, but not water, for 18 hours prior to each assay. Each dog was initially infused with 0.15 M sodium chloride solution at a constant rate of […]. The volume of gastric secretions, collected in plastic bottles affixed to the cannula, were measured to the nearest 0.1 ml at 30 minute intervals. One of the following protocols was followed, depending on the route chosen for administration of test compound.
Intravenous dosing: Following a 30-minute basal secretion period, test compounds were administered intravenously (i.v.). At the end of an additional 30 minute period, the saline infusion was replaced with histamine dihydrochloride in saline administered at a rate 15 mcg per kilogram of body weight per hour. Histamine stimulation was maintained for a maximum of four hours during which time gastric secretions were collected every 30 minutes. The pH and titratable acidity were determined for samples from each collection period.
Intragastric dosing: Following a 30-minute basal secretion period, he collection bottles were removed, dosing plugs here inserted, and test compounds were administered intragastrically (i.g.) At the end of a 30-minute drug absorption period, the stomachs were emptied, the collection bottles were reattached, and collections were resumed at 30-minute intervals. Simultaneously, the saline infusion was replaced with a continuous intravenous infusion of histamine dihydrochloride in saline administered for four hours at a rate 15 mcg per kilogram of body weight per hour.
Intraduodenal dosing: Dogs were also equipped with duodenal cannulas for intraduodenal (i.d.) administration of test compounds. Dosing was otherwise performed as described for intragastric dosing.
as §1, with “Data from each protocol” for “Data”, “gastric sample” for “different”, “each” for “the”, “controls in which […].” for “controls.”, “ED50's” for “ED50”

Row | Compound | melting point [°C] | Pavlov-Pouch Dog % Inhibition (dose (mg/kg)) (gastric acid secretion [1]) | IC50 ((H+/K+)-ATPase) [nM] | inhibition in vivo at 3 mg/kg (gastric acid secretion [2]; intraduodenal, 3 mg/kg i.d.) [%] | inhibition in vivo at 3 mg/kg (gastric acid secretion [2]; iv, 3 mg/kg i.v.) [%] | inhibition in vivo at 3 mg/kg (gastric acid secretion [2]; po, 3 mg/kg i.g.) [%]
1 | COc1ccc2[nH]c([S+]([O-])Cc3cc(C)ccc3N)nc2c1 (stereo not shown) [Example 34, 2-[[(5-Methoxy-1H-benzimidazol-2-yl)sulfinyl]methyl]-4-methylbenzenamine] | 148 to 149 | 79 (3 mg/kg) % | 4200 | 66 | 91 | 43
2 | CN(C)c1ccccc1C[S+]([O-])c1nc2ccccc2[nH]1 (stereo not shown) [Example 4, 2-[(1H-Benzimidazol-2-ylsulfinyl)methyl]N,N-dimethylbenzenamine] | 107 to 109 | 3 (3 mg/kg) % | 700 | – | 14 | –
